The text below walks through data of patent US20110092509A1, “Pharmaceutical Composition for Prevention or Treatment of Disease Associated with Tear Reduction” (Kissei Pharmaceutical, Co. Ltd., priority 2007, published 2011).

Each structure is given as a SMILES string. Structures can show the parent of a compound that is named as a salt.

What all share (type): in vivo, rabbit
Assay [1] relates to Japanese white rabbits. The assay can be described thus: Measurement of quantity of tear secretion in rabbits (filter paper weight, ocular instillation). Particulars: for Tear secretion: change before vs 5 min after instillation of 50 μL of 0.1 w/v % solution (phosphate buffer, pH7.4) to both eyes, anesthetized male rabbits, 5 min measurement, mean. The method, then:
(§1) Three male Japanese white rabbits (about 3 kg) were allocated to each group. Each 50 μL of ½ sulfate salt of Compound 1 (0.1% phosphate buffer solution, pH7.4), terbutaline sulfate (0.1% phosphate buffer solution, pH7.4) or a solvent thereof (a phosphate buffer, pH7.4) was administered to both eyes of the rabbit which was anesthetized with pentobarbital (40 mg/kg, i.v.). Two pieces each of pre-weighed filter paper (Wattman No. 41, 0.22 μm thick, 2.5×15 mm) were inserted to the lower conjunctival sac of the right or left eye, and the difference in weight of the filter papers before and after insertion (post-insertion weight−pre-insertion weight) was defined as the quantity of tear secretion. The quantity of tear secretion was measured for 5 min before drug administration and for 5 min at 5 min after drug administration. Fifty (50) μL of a local anesthetic agent, 0.4% oxybuprocaine hydrochloride (Santen Co.), was instilled into eyes 5 min before each measurement. Tear and the instilled local anesthetic were wiped immediately before the filter paper was inserted.
(§2) Filter papers recovered after each measurement were placed into tubes. A phosphate buffer (pH 7.4) (500 μL) was added to each of the tubes, and they were mixed by vortex mixer for 30 sec. After the filter papers were removed and the mixture was centrifuged at 470×g for 5 min, protein concentrations in supernatant were measured using Micro BCA Protein Assay Reagent Kit (Pierce Co.). The quantity of protein in tear was calculated based on the measured protein concentration and quantity of tear secretion. The difference in the quantity of tear secretion before administration of a solvent, ½ sulfate of Compound 1 or terbutaline sulfate and that after administration was defined as a change in the quantity of tear secretion or protein in tear, respectively. Each milligram of the change in the quantity of tear was taken as 1 μL.

In assay [2] the test system is Japanese white rabbits. The assay can be described thus: Measurement of quantity of protein in tear in rabbits (Micro BCA Protein Assay). Conditions: for Change in protein in tear: change before vs after instillation of 50 μL of 0.1 w/v % solution to both eyes, anesthetized male rabbits, mean. The method, then:
as §1, §2

Assay [3] deals with PAS positive goblet cells. The assay can be described thus: Mucin secretion from conjunctiva in rabbits: count of PAS positive goblet cells by impression cytology. Conditions: 0.1 w/v % instilled; for Count of PAS-positive goblet cells: percentage of the solvent group, decrease indicates facilitated mucin secretion from conjunctiva, mean. The procedure: In addition, at the same timing of measurement of the quantity of tear secretion, 3 mm diameter cellulose acetate filter paper was pressed on the conjunctiva for 30 sec. by impression cytology method, and periodic acid/Schiff (PAS) staining was performed with the recovered filter papers. After filter papers were cleared and embedded, the number of PAS positive goblet cells existing in a certain visual field of a microscope was counted.
Decreases in the count of PAS positive goblet cells indicate that mucin secretion from the conjunctiva is facilitated. Each value is mean of 4 animals, and ½ sulfate of Compound 1 increased extremely about 30% more in the quantity of tear secretion, about 200% more the quantity of protein in tear and about 50% more mucin secretion from conjunctiva in comparison with the solvent and terbutaline sulfate.

Where [4] appears, read: 0.1 w/v % instilled, rabbits, '% more'.

As to `C[C@H](Cc1ccc2c(c1)OC[C@H](C(=O)O)O2)NC[C@H](O)c1cccc(Cl)c1` [Compound N-5984, 6-[2-(R)-[[2-(R)-(3-chlorophenyl)-2-hydroxyethyl]amino]propyl]-2,3-dihydro-1,4-benzodioxine-2-(R)-carboxylic acid], the “Effect on quantity of tear secretion (in words)” value in assay [1] (0.1 w/v % instilled, rabbits) was “extremely increased”. In addition, the Tear secretion in assay [1] was found to be 4.42 µL. Moreover, the “Effect on quantity of protein in tear (in words)” value in assay [2] (0.1 w/v % instilled, rabbits) is recorded as “extremely increased”. In addition, in assay [2], the “Change in protein in tear” value is 2.72 µg. Further, in assay [3] (rabbits), the “Effect on mucin secretion from conjunctiva (in words)” value is “extremely increased”. Besides, the “Count of PAS-positive goblet cells” value in assay [3] came out at 57.1%.
Consider `CC(C)(C)NCC(O)c1cc(O)cc(O)c1` (stereo not drawn) [Terbutaline sulfate, reference compound], for which the Tear secretion in assay [1] amounted to 3.80 µL. In addition, the “Change in protein in tear” value in assay [2] was 1.04 µg. In addition, the “Count of PAS-positive goblet cells” value in assay [3] is 77.3%.
On to `CN(C)C(=O)COc1ccc2c(c1)C[C@@H](NC[C@H](O)c1ccc(O)cc1)CC2` [½ sulfate of Compound 1, 2-[(2S)-2-[[(2R)-2-hydroxy-2-(4-hydroxyphenyl)ethyl]-amino]-1,2,3,4-tetrahydronaphthalen-7-yloxy]-N,N-dimethyl-acetamide], for which the “Increase in quantity of tear secretion in comparison with the solvent and terbutaline sulfate” value in assay [1] (setting [4]) was “about 30%”. Further, the Tear secretion in assay [1] stood at 4.87 µL. The “Increase in quantity of protein in tear in comparison with the solvent and terbutaline sulfate” value in assay [2] (setting [4]) is recorded as “about 200%”. Moreover, the “Change in protein in tear” value in assay [2] came out at 2.57 µg. The “Increase in mucin secretion from conjunctiva in comparison with the solvent and terbutaline sulfate” value in assay [3] (rabbits, '% more') is “about 50%”. Moreover, the “Count of PAS-positive goblet cells” value in assay [3] turned out to be 64.8%.
